The assay addresses T1, His6-MoxR (Riemerella anatipestifer, UniProt E4TDR4).
T1 construct: gene RA0C_2065
The note with it: 37 °C, 1 h; ATP or His6-MoxR concentration varied.

We go through one molecule from publication PMC11834572, “MoxR effects as an ATPase on anti-stress and pathogenicity of Riemerella anatipestifer” (Veterinary Research, 2025).

T1 sequence (E4TDR4 entry or part of it): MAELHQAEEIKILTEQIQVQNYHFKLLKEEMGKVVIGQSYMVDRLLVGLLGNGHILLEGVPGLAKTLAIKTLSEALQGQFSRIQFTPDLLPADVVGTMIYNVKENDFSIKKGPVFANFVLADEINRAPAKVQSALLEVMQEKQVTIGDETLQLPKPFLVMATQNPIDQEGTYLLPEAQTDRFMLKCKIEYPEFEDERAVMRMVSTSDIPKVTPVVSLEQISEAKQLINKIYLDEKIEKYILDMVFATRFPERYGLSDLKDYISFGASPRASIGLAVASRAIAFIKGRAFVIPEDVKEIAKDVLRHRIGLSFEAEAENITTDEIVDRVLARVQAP

`Nc1ncnc2c1ncn2[C@@H]1O[C@H](COP(=O)(O)OP(=O)(O)OP(=O)(O)O)[C@@H](O)[C@H]1O` [ATP]: the “phosphate release, molybdenum blue, absorbance at 660 nm” value is “concentration of phosphate groups in each reaction system increased with higher amounts of His6-MoxR and ATP”.
